The source of these data is ChEMBL document CHEMBL5346943, “Discovery and Structural Optimization of Novel Quinolone Derivatives as Potent Irreversible Pan-Fibroblast Growth Factor Receptor Inhibitors for Treating Solid Tumors” (J Med Chem, 2023).

Assay [1] addresses T1, Fibroblast growth factor receptor 4 (Homo sapiens, UniProt P22455). Briefly: Inhibition of FGFR4 (unknown origin) incubated for 10 mins followed by substrate addition measured after 60 mins by ADP-Glo luminescence assay.
Target sequence in this assay (P22455 whole entry): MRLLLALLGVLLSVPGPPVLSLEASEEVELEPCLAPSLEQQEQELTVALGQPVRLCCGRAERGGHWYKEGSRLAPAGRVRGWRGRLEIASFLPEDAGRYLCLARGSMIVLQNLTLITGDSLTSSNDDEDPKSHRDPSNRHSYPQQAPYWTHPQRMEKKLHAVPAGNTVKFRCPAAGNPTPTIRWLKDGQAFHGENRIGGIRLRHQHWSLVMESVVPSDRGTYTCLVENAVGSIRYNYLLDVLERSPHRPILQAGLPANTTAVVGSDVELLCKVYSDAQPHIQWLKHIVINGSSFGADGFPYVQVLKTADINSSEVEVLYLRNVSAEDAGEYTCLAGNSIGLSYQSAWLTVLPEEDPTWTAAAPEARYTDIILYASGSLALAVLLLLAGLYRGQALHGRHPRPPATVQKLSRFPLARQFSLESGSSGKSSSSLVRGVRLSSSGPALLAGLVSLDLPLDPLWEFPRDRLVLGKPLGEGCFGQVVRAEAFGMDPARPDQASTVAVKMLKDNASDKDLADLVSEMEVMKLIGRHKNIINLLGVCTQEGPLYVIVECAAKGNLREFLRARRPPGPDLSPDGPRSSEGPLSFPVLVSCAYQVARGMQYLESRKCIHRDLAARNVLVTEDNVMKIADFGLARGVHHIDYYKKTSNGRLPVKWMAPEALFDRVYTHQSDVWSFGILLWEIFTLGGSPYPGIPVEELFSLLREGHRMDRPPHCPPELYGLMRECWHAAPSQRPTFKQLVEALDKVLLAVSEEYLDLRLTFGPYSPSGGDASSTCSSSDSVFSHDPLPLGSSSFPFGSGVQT
Assay [2] relates to Huh-7. In words: Antiproliferative activity against human Huh-7 cells incubated for 72 hrs by Cell counting kit 8 method. As to conditions: Huh-7, 72 h. Format: functional, cell-based. On the technique in general: Tetrazolium dyes change colour on reduction, which living cells bring about.
In assay [3] the test system is Hep 3B2. Briefly: Antiproliferative activity against human Hep3B cells incubated for 72 hrs by Cell counting kit 8 method. The assay is classed as functional, cell-based.
For assay [4], the target named is T1, Fibroblast growth factor receptor 4. In words: Inhibition of FGFR4 (unknown origin) at 100 nM incubated for 10 mins followed by substrate addition measured after 60 mins by ADP-Glo luminescence assay relative to control. The following applies: time 70.0 min. On the technique in general: ADP-Glo turns the ADP formed in a reaction into a luminescent signal.
Target sequence in this assay (P22455 22-802 limits assumed): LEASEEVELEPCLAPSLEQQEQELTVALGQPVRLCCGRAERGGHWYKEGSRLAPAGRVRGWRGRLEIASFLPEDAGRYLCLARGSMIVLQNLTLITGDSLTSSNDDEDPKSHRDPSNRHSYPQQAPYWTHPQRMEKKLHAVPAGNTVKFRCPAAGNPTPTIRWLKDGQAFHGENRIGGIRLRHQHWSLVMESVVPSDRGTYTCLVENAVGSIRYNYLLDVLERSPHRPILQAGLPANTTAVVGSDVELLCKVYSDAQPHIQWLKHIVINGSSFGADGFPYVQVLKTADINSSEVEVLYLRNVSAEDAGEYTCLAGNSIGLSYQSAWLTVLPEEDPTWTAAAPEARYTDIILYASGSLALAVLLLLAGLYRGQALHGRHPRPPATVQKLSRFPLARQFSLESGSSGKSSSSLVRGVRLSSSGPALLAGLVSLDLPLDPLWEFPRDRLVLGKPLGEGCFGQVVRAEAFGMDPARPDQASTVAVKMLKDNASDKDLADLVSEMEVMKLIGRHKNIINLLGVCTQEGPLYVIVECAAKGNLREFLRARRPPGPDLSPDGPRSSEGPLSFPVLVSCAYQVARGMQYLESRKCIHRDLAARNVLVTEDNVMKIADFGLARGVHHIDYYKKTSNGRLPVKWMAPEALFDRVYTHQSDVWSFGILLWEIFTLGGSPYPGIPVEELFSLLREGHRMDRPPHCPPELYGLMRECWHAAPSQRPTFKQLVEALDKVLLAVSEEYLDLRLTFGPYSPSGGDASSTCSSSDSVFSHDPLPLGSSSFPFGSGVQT

Each structure is given as a SMILES string.

On to `C=CC(=O)N1CCC(c2cc3c(Oc4ccc(NC(=O)NC5CC5)c(F)c4)ccnc3cc2OC)CC1`, for which the IC50 in assay [1] turned out to be 18 nM; in assay [2], 21.1 nM; in assay [3], 30.2 nM.
On to `COc1cc2nccc(Oc3ccc(NC(=O)NC4CC4)c(Cl)c3)c2cc1C1CCN(C(=O)/C=C/C(F)(F)F)CC1`, for which the IC50 in assay [1] was 12.4 nM; in assay [2], 103 nM; in assay [3], > 10000 nM.
For the compound `C=CC(=O)N1CCC(c2cc3c(Oc4ccc(NC(=O)C5(C(=O)Nc6ccc(F)cc6)CC5)cc4)ccnc3cc2OC)CC1`, in assay [4], the inhibition was -2.1%. For the same compound, the IC50 was > 10000 nM in assay [2] and 3930 nM in assay [3].
For `C=CC(=O)N1CCC(c2cc3c(Oc4ccc(NC(=O)NC5CC5)c(Cl)c4)ncnc3cc2OC)CC1`, the results for the concentration for half-maximal inhibition (IC50) in assay [1], in assay [2] and in assay [3] were 15 nM, 71.3 nM and 72.6 nM, respectively.
In the case of `C=CC(=O)N1CC=C(c2cc3c(Oc4ccc(NC(=O)NC5CC5)c(Cl)c4)ccnc3cc2OC)CC1`, the IC50 came to 2.88 nM in assay [1], 54.3 nM in assay [2] and 66.2 nM in assay [3].
Consider `C=CC(=O)N1CCC(c2cc3c(Oc4cc5cc(C)[nH]c5cc4F)ccnc3cc2OC)CC1`, for which the inhibition in assay [4] was determined as 20.6%. The values for the IC50 in assay [2] and in assay [3] were 216 nM and 313 nM, respectively.
For the compound `C=CC(=O)N1CCC(c2cc3c(Oc4ccc(/N=C5\CCCN5C)c(Cl)c4)ccnc3cc2OC)CC1`, the IC50 in assay [2] and in assay [3] was > 10000 nM each time.
On to `C=CC(=O)N1CCC(c2cc3c(Oc4ccc5c(C(=O)NC)cccc5c4)ccnc3cc2OC)CC1`, for which the inhibition in assay [4] worked out at 24%. Moreover, the figures for the IC50 in assay [2] and in assay [3] were 114 nM and 125 nM, respectively.
`C=CC(=O)N1CCC(c2cc3nccc(Oc4ccc(NC(=O)NC5CC5)c(Cl)c4)c3cc2OC)CC1`: the inhibition in assay [4] stood at 25.9%. The IC50 in assay [2] and in assay [3] was > 10000 nM each time.
As for `COc1cc2nccc(Oc3ccc(NC(=O)NC4CC4)c(Cl)c3)c2cc1C1=CCN(C(=O)CCl)CC1`, the IC50 in assay [1] was 294 nM; in assay [2], > 10000 nM; in assay [3], 1660 nM.
`C=CC(=O)N1CCC(c2cc3c(Oc4ccc(NC(=O)Nc5cc(C)on5)c(Cl)c4)ccnc3cc2OC)CC1`: the inhibition in assay [4] is 36.5%. The figures for the IC50 in assay [2] and in assay [3] were 384 nM and 664 nM, respectively.
For the compound `C=CS(=O)(=O)N1CC=C(c2cc3c(Oc4ccc(NC(=O)NC5CC5)c(Cl)c4)ccnc3cc2OC)CC1`, the IC50 was 4.65 nM in assay [1], > 10000 nM in assay [2] and 5080 nM in assay [3].
As for `C=CC(=O)N1CCC(c2cc3c(Nc4ccc(F)c(Cl)c4)ccnc3cc2OC)CC1`, in assay [4], the inhibition is 15.3%. Besides, the IC50 in assay [2] and in assay [3] was > 10000 nM each time.
As for `C=C(F)C(=O)N1CCC(c2cc3c(Oc4ccc(NC(=O)NC5CC5)c(Cl)c4)ccnc3cc2OC)CC1`, the inhibition in assay [4] worked out at 21.6%. The IC50 in assay [2] and in assay [3] was > 10000 nM throughout.
`C=CC(=O)N1CCC(c2cc3c(Oc4ccc(NC(=O)c5c(C)n(C)n(-c6ccccc6)c5=O)cc4F)ccnc3cc2OC)CC1`: the figures for the IC50 in assay [2] and in assay [3] were 1710 nM and 450 nM, respectively.

One may read the IC50 as the concentration needed to halve the response being measured. High values mean weaker potency, low ones greater potency. One may read the inhibition as the drop in the measured response relative to a control, in per cent.
